Measured values: ChEMBL document CHEMBL5620410, “Crystal structures of non-uracil ring fragments in complex with Mycobacterium tuberculosis uracil DNA glycosylase (MtUng) as a starting point for novel inhibitor design: A case study with the barbituric acid fragment” (Eur J Med Chem, 2023)

Assay: Inhibition of Mycobacterium tuberculosis Uracil-DNA glycosylase using 5' 32P end-labelled uracil DNA containing oligomer (5'-ctcaagtgUaggcatgcttttgcatgcctgcacttga-3') as substrate preincubated with enzyme for 15 mins followed by incubation on ice for 5 mins and incubation at room temperature for 5 mins and later incubated with substrate for 15 mins by radioactivity based assay
Compound `COC(=O)c1cccc(OCCOc2ccc(C=C3C(=O)NC(=O)NC3=O)cc2)c1` has an IC50 of 2.4 mM.
`O=C(O)c1[nH]c(=O)[nH]c(=O)c1F` showed an IC50 of 2.8 mM.
In the case of `O=c1cc[nH]c(=O)[nH]1` [URACIL], the IC50 is reported as 0.8 mM.
For `O=C1NC(=O)C(=Cc2ccc(OCCOc3ccccc3C(=O)O)cc2)C(=O)N1`, the IC50 was 1.9 mM.
Work on `O=C(O)c1c[nH]c(=O)[nH]c1=O` yielded an IC50 of 2.4 mM.
For `O=C1NC(=O)C(=Cc2ccc([N+](=O)[O-])cc2)C(=O)N1`, the IC50 was 1 mM.
`O=C1NC(=O)C(=Cc2ccc(Br)cc2)C(=O)N1` gave an IC50 of 1.5 mM.
In the case of `O=C1NC(=O)C(=Cc2ccc(OCCCOc3ccccc3C(=O)O)cc2)C(=O)N1`, the IC50 is reported as 0.7 mM.
In the case of `Cc1cc2nc3[nH]c(=O)[nH]c(=O)c3nc2cc1C` [LUMICHROME], the IC50 is reported as 1.5 mM.
With `COC(=O)CCCOc1ccc(C=C2C(=O)NC(=O)NC2=O)cc1` the IC50 was 3 mM.
In the case of `O=Cc1cc(=O)[nH]c(=O)[nH]1`, the IC50 is reported as 1 mM.
Compound `O=C1CC(=O)NC(=O)N1` [BARBITURIC ACID] has an IC50 of 1 mM.
`COC(=O)c1ccccc1OCCOc1ccc(C=C2C(=O)NC(=O)NC2=O)cc1` showed an IC50 of 0.1 mM.
With `COC(=O)c1ccc(OCCOc2ccccc2C=C2C(=O)NC(=O)NC2=O)cc1` the IC50 was 3.5 mM.
Compound `COc1cccc(C=C2C(=O)NC(=O)NC2=O)c1` has an IC50 of 1.9 mM.
With `O=C(O)c1cc(=O)[nH]c(=O)[nH]1` [OROTIC ACID] the IC50 was 2.3 mM.
In the case of `Oc1ncc(O)c(O)n1`, the IC50 is reported as 1.2 mM.
For `COC(=O)COc1ccc(C=C2C(=O)NC(=O)NC2=O)cc1`, the IC50 was 0.5 mM.
With `COC(=O)c1ccccc1OCCCOc1ccc(C=C2C(=O)NC(=O)NC2=O)cc1` the IC50 was 1.6 mM.
Work on `COC(=O)c1ccc(OCCOc2ccc(C=C3C(=O)NC(=O)NC3=O)cc2)cc1` yielded an IC50 of 1.2 mM.
For `Oc1nc(O)c2nc(O)[nH]c2n1` [URIC ACID], the IC50 was 1.7 mM.

Assay: Inhibition of Mycobacterium tuberculosis Uracil-DNA glycosylase using 5'-FAM-CUUUUUGAGCTTTTGCTCAAAAAG-3'-BHQ-1 as substrate measured every 2 mins for 40 mins by fluorescence based analysis
Compound `O=C(O)c1[nH]c(=O)[nH]c(=O)c1F` has an IC50 of 2.93 mM.
Compound `O=c1cc[nH]c(=O)[nH]1` [URACIL] has an IC50 of 2.05 mM.
`O=C1NC(=O)C(=Cc2ccc(OCCOc3ccccc3C(=O)O)cc2)C(=O)N1` showed an IC50 of 1.1 mM.
Compound `O=C(O)c1c[nH]c(=O)[nH]c1=O` has an IC50 of 15.9 mM.
Work on `COC(=O)CCCOc1cccc(C=C2C(=O)NC(=O)NC2=O)c1` yielded an IC50 of 4.2 mM.
Compound `COC(=O)c1ccccc1OCCOc1ccccc1C=C1C(=O)NC(=O)NC1=O` has an IC50 of 1.06 mM.
In the case of `COc1cc2nc(O)nc(O)c2cc1OC`, the IC50 is reported as 0.93 mM.
Work on `O=Cc1cc(=O)[nH]c(=O)[nH]1` yielded an IC50 of 6.51 mM.
Work on `COC(=O)COc1cccc(C=C2C(=O)NC(=O)NC2=O)c1` yielded an IC50 of 10.4 mM.
With `COC(=O)CCCOc1ccccc1C=C1C(=O)NC(=O)NC1=O` the IC50 was 0.99 mM.
Compound `O=C1CC(=O)NC(=O)N1` [BARBITURIC ACID] has an IC50 of 7.29 mM.
In the case of `O=C1CSC(=O)N1` [THIAZOLIDINEDIONE], the IC50 is reported as 17.3 mM.
In the case of `COC(=O)COc1ccccc1C=C1C(=O)NC(=O)NC1=O`, the IC50 is reported as 5.55 mM.
Work on `O=C(O)c1cc(=O)[nH]c(=O)[nH]1` [OROTIC ACID] yielded an IC50 of 14.2 mM.
With `Oc1ncc(O)c(O)n1` the IC50 was 2.8 mM.
In the case of `COC(=O)COc1ccc(C=C2C(=O)NC(=O)NC2=O)cc1`, the IC50 is reported as 0.33 mM.
`Oc1nc(O)c2nc(O)[nH]c2n1` [URIC ACID] showed an IC50 of 16.4 mM.
